Laboratory results as given in ChEMBL document CHEMBL1201862, “PubChem BioAssay data set” (2004).
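Cells were grown in 96-well plates and exposed to each compound for 48 hours at five concentrations; endpoints were interpolated linearly between bracketing concentrations, or set to the highest concentration if not reached. GI50 marks 50% less growth.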 Calls of active or inactive are those of the source. Rule as the data show it: active = GI50 up to about 1.1 µM and inactive = higher.

Legend:
Assay in all cases: NCI anticancer screen, dose series, 48 h
786-0 = tested on: 786-0
A549 = tested on: A549
ACHN = tested on: ACHN
BT-549 = tested on: BT-549
CAKI-1 = tested on: CAKI-1
CCRF-CEM = tested on: CCRF-CEM
COLO 205 = tested on: COLO 205
DU-145 = tested on: DU-145
EKVX = tested on: EKVX
HCC 2998 = tested on: HCC 2998
HCT-116 = tested on: HCT-116
HCT-15 = tested on: HCT-15
HL-60 = tested on: HL-60
HOP-62 = tested on: HOP-62
HOP-92 = tested on: HOP-92
HT-29 = tested on: HT-29
Hs-578T = tested on: Hs-578T
IGROV-1 = tested on: IGROV-1
K562 = tested on: K562
KM12 = tested on: KM12
LOX IMVI = tested on: LOX IMVI
M14 = tested on: M14
MCF7 = tested on: MCF7
MDA-MB-231 = tested on: MDA-MB-231
MDA-MB-435 = tested on: MDA-MB-435
MDA-N = tested on: MDA-N
MOLT-4 = tested on: MOLT-4
Malme-3M = tested on: Malme-3M
NCI-H226 = tested on: NCI-H226
NCI-H23 = tested on: NCI-H23
NCI-H460 = tested on: NCI-H460
NCI-H522 = tested on: NCI-H522
NCI/ADR-RES = tested on: NCI/ADR-RES
OVCAR-3 = tested on: OVCAR-3
OVCAR-4 = tested on: OVCAR-4
OVCAR-5 = tested on: OVCAR-5
OVCAR-8 = tested on: OVCAR-8
PC-3 = tested on: PC-3
RPMI-8226 = tested on: RPMI-8226
RXF 393 = tested on: RXF 393
SF-268 = tested on: SF-268
SF-295 = tested on: SF-295
SF-539 = tested on: SF-539
SK-MEL-28 = tested on: SK-MEL-28
SK-MEL-2 = tested on: SK-MEL-2
SK-MEL-5 = tested on: SK-MEL-5
SK-OV-3 = tested on: SK-OV-3
SN12C = tested on: SN12C
SNB-19 = tested on: SNB-19
SNB-75 = tested on: SNB-75
SR = tested on: SR
SW-620 = tested on: SW-620
T47D = tested on: T47D
TK-10 = tested on: TK-10
U-251 = tested on: U-251
UACC-257 = tested on: UACC-257
UACC-62 = tested on: UACC-62
UO-31 = tested on: UO-31
A498 = tested on: A498

Measured: GI50

COc1ccc(C(C#N)NC23CC4CC(CC(C4)C2)C3)cc1 (configuration not stated)
> 100 µM: HCT-15
inactive: 786-0 > 100 µM | A549 > 100 µM | ACHN > 100 µM | BT-549 > 100 µM | CAKI-1 > 100 µM | CCRF-CEM > 100 µM | COLO 205 > 100 µM | DU-145 > 100 µM | EKVX > 100 µM | HCC 2998 > 100 µM | HCT-116 > 100 µM | HL-60 88.5 µM | HOP-62 > 100 µM | HOP-92 67.9 µM | HT-29 > 100 µM | Hs-578T > 100 µM | IGROV-1 > 100 µM | K562 > 100 µM | KM12 > 100 µM | LOX IMVI > 100 µM | M14 > 100 µM | MCF7 > 100 µM | MDA-MB-231 > 100 µM | MDA-MB-435 > 100 µM | MDA-N > 100 µM | MOLT-4 > 100 µM | Malme-3M > 100 µM | NCI-H226 > 100 µM | NCI-H23 > 100 µM | NCI-H460 > 100 µM | NCI-H522 > 100 µM | NCI/ADR-RES > 100 µM | OVCAR-3 > 100 µM | OVCAR-4 > 100 µM | OVCAR-5 > 100 µM | OVCAR-8 > 100 µM | PC-3 > 100 µM | RPMI-8226 > 100 µM | RXF 393 > 100 µM | SF-268 > 100 µM | SF-295 > 100 µM | SF-539 > 100 µM | SK-MEL-28 > 100 µM | SK-MEL-2 > 100 µM | SK-MEL-5 > 100 µM | SK-OV-3 > 100 µM | SN12C > 100 µM | SNB-19 > 100 µM | SNB-75 > 100 µM | SR > 100 µM | SW-620 > 100 µM | T47D > 100 µM | TK-10 > 100 µM | U-251 > 100 µM | UACC-257 > 100 µM | UACC-62 > 100 µM | UO-31 > 100 µM

COc1ccc(OC)c2sc(N3C(=O)/C(=C/c4ccc(SC)cc4)N=C3c3ccccc3)nc12
inactive: 786-0 43.3 µM | A498 > 100 µM | A549 22.2 µM | ACHN 28.9 µM | BT-549 29.4 µM | CAKI-1 96.2 µM | CCRF-CEM 8.17 µM | COLO 205 58.5 µM | DU-145 39.9 µM | EKVX 32.1 µM | HCC 2998 71.4 µM | HCT-116 18.7 µM | HL-60 25.5 µM | HOP-62 16.4 µM | HOP-92 55.7 µM | HT-29 23.1 µM | Hs-578T 17.7 µM | IGROV-1 23.3 µM | K562 > 100 µM | KM12 20 µM | LOX IMVI 25.6 µM | M14 21.2 µM | MCF7 20.3 µM | MDA-MB-231 > 100 µM | MDA-MB-435 17.2 µM | MDA-N 20.3 µM | MOLT-4 22.3 µM | NCI-H460 28.6 µM | NCI/ADR-RES 29.3 µM | OVCAR-3 20.4 µM | OVCAR-4 28.5 µM | OVCAR-5 47.3 µM | OVCAR-8 27.7 µM | PC-3 21.7 µM | RPMI-8226 13.3 µM | SF-268 14.1 µM | SF-295 42 µM | SF-539 23.8 µM | SK-MEL-28 > 100 µM | SK-MEL-2 20.8 µM | SK-MEL-5 15.6 µM | SK-OV-3 30.5 µM | SN12C 24.9 µM | SNB-19 26.4 µM | SNB-75 18.3 µM | SR 26.4 µM | SW-620 27.4 µM | T47D 26.3 µM | TK-10 > 100 µM | U-251 17.5 µM | UACC-257 17.3 µM | UACC-62 31.5 µM | UO-31 24.2 µM
43.1 µM: HCT-15
